# Results reported in patent US20100152154A1, “NOVEL PLATINUM COMPOUNDS FOR TREATING CANCER” (priority 2008, published 2010).
# Tests used:
# Format in all cases: cell-based, human
# Caki-1 cells = test: In vitro IC50 by MTS assay, Caki-1 kidney cancer cells; conditions: Caki-1, 48 hr incubation, MTS assay (490 nm)
# Description: (§1) To Determine the In Vitro IC50 Values on Ten Human Cancer Cell Lines
# (§2) HepG2 and PLC/PRF/5 cells are cultured in DMEM medium. Hep3B cells are cultured in MEM medium. NCI-H460 and 786-0 cells are cultured in RPMI 1640 medium. Caki-1, HCT-116, and SK-OV-3 cells are cultured in McCoy's 5A medium. MDA-MB-231 cells are cultured in L15 medium. All cells are cultured in corresponding media supplemented with 10% FBS, at 37° C., 5% CO2, and 95% humidity. All media are purchased from GIBCO.
# (§3) CellTiter 96® Aqueous MTS reagent powder (Cat. No. G1112, Promega) Phenazine methosulfate (PMS) (Cat. No. P9625, Sigma)
# (§4) Cells are harvested during the logarithmic growth period and counted with hemocytometer. Add 90 μl cell suspensions to 96-well plates (triplicates for each cell concentration), the final cell densities are 2×10^4, 1×10^4, or 5×10^3 cells/well. Prepare a series of drug concentrations for each of JP0916 and cisplatin and dispense 10 μl drug solution in each well (triplicate for each drug concentration). Incubate the plate for 48 hr then measure by MTS assay (490 nm).
# HepG2 cells = test: In vitro IC50 by MTS assay, HepG2 liver cancer cells; conditions: HepG2, 48 hr incubation, MTS assay (490 nm)
# Description: as §1, §2, §3, §4
# 786-0 cells = test: In vitro IC50 by MTS assay, 786-0 kidney cancer cells; conditions: 786-0, 48 hr incubation, MTS assay (490 nm)
# Description: as §1, §2, §3, §4
# SK-OV-3 cells = test: In vitro IC50 by MTS assay, SK-OV-3 ovarian cancer cells; conditions: SK-OV-3, 48 hr incubation, MTS assay (490 nm)
# Description: as §1, §2, §3, §4
# PC/PRF/5 cells = test: In vitro IC50 by MTS assay, PC/PRF/5 liver cancer cells; conditions: PC/PRF/5, 48 hr incubation, MTS assay (490 nm)
# Description: as §1, §2, §3, §4
# MDA-MB-231 cells = test: In vitro IC50 by MTS assay, MDA-MB-231 breast cancer cells; conditions: MDA-MB-231, 48 hr incubation, MTS assay (490 nm)
# Description: as §1, §2, §3, §4
# HCT-116 cells = test: In vitro IC50 by MTS assay, HCT-116 colon cancer cells; conditions: HCT-116, 48 hr incubation, MTS assay (490 nm)
# Description: as §1, §2, §3, §4
# NCI-H460 cells = test: In vitro IC50 by MTS assay, NCI-H460 NSCLC cells; conditions: NCI-H460, 48 hr incubation, MTS assay (490 nm)
# Description: as §1, §2, §3, §4
# Hep3B cells = test: In vitro IC50 by MTS assay, Hep3B liver cancer cells; conditions: 48 hr incubation, MTS assay (490 nm)
# Description: as §1, §2, §3, §4
substance,measurement,setting,value
cis-diamminedichloroplatinum(II) [Cisplatin],IC50,Caki-1 cells,10.5 µM
same,IC50,HepG2 cells,25.6 µM
same,IC50,786-0 cells,3.54 µM
same,IC50,SK-OV-3 cells,21.6 µM
same,IC50,PC/PRF/5 cells,21.8 µM
same,IC50,MDA-MB-231 cells,53.2 µM
same,IC50,HCT-116 cells,10.6 µM
same,IC50,NCI-H460 cells,8.56 µM
same,IC50,Hep3B cells,3.08 µM
